Experimental findings from PMC5607274, “An iterative compound screening contest method for identifying target protein inhibitors using the tyrosine-protein kinase Yes” (Scientific Reports, 2017) are described below.

The first assay deals with T1, human recombinant Yes [a.a. 2–543 (end)] (Homo sapiens, UniProt P07947).
T1 construct: human recombinant Yes [a.a; 2–543 (end)]; purchased BPS Bioscience 40488
T1 sequence (P07947 2-543): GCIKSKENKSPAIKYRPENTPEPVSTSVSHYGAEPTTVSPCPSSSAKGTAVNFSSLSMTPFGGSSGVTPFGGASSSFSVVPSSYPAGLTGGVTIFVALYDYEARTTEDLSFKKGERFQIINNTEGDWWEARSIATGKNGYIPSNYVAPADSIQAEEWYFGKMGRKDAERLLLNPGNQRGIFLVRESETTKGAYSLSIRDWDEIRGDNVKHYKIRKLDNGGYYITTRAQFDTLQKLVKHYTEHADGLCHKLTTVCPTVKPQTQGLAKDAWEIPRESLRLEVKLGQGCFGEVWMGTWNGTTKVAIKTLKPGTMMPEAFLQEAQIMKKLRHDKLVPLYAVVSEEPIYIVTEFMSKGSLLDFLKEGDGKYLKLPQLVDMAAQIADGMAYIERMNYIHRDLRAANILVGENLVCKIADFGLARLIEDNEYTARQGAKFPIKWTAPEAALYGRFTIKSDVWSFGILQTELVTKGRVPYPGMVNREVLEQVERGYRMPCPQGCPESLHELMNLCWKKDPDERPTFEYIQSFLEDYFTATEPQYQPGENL
As to the kind of experiment: ADP-Glo kinase assay, inhibition rates of Yes phosphorylation activity (first and second screening). The assay is classed as biochemical. The conditions noted are these: first screening; mean of n = 4 wells; 10 μmol L−1 compound. The essentials: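 Hits from a first pass were rescreened after re-dissolution from fresh powder. The first pass reported the mean inhibition rate of quadruplicate wells per compound. Activity was that of recombinant human Yes [a.a. 2–543] kinase, read out with the ADP-Glo ADP-detection method.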
On to `Cc1c(-c2ccc(O)cc2)nc2ccc(Cl)cc2c1-c1ccccc1Cl.Cl` [Compound Z48951741], for which the “First screening IR (inhibition rate)” value was found to be 40%. In the case of `Cc1ccc(-c2c3c(nc4sc5c(c24)CCC5)CCC(C(C)(C)C)C3)cc1.Cl` (stereo not drawn) [Compound Z48952614], the “First screening IR (inhibition rate)” value is reported as 4%. As to `Cl.Fc1ccccc1-c1c2c(nc3ccc(Cl)cc13)-c1ccccc1OC2` [Compound Z48955788], the “First screening IR (inhibition rate)” value is reported as -15%. The same measure, in the same setting: then `Cl.Fc1ccccc1-c1cc(-c2ccccc2F)c2cc(Cl)ccc2n1` [Compound Z48955797], with 11%. The same measure, in the same setting: then `Cl.Fc1ccccc1-c1c2c(nc3ccc(Cl)cc13)-c1ccccc1CC2` [Compound Z48955803], with 15%. `Cl.Fc1ccccc1-c1cc(-c2ccccc2)nc2ccc(Cl)cc12` [Compound Z48955825]: the “First screening IR (inhibition rate)” value is given as -1%. Regarding `Cc1ccc(-c2cc(-c3ccccc3F)c3cc(Cl)ccc3n2)cc1.Cl` [Compound Z48955827], the “First screening IR (inhibition rate)” value is given as 12%.

On to `Cl.N#Cc1ccc(-c2cc(-c3ccccc3F)c3cc(Cl)ccc3n2)cc1` [Compound Z48955841], for which the “First screening IR (inhibition rate)” value is on record as 3%. Still for that read-out and setting: then `Cc1c(-c2ccc(O)cc2)nc2ccc(Cl)cc2c1-c1ccccc1F.Cl` [Compound Z48955845], with 3%; and `Cc1cc(C)nc(N/N=C/c2ccc3ncccc3c2)n1` [Compound Z49539423], with -6%; and `COc1cc(/C=N/NC(=O)c2cccnc2)ccc1OC(=O)c1cccnc1` [Compound Z49575448], with 10%. On the same count and under the same terms, then `O=C(O)c1cccc(N/N=C/c2ccc(N(c3ccccc3)c3ccccc3)cc2)c1` [Compound Z49584790], with 18%; and `Oc1cccc(/C=N/Nc2ccnc3cc(Cl)ccc23)c1` [Compound Z49625857], with -13%. On to `CCOc1cc(/C=N/Nc2ccnc3cc(Cl)ccc23)ccc1O` [Compound Z49625899], for which the “First screening IR (inhibition rate)” value was 9%. `COc1ccc(/C=N/Nc2ccnc3cc(Cl)ccc23)cc1O` [Compound Z49625943]: the “First screening IR (inhibition rate)” value worked out at 26%. For the molecule `COc1cc(/C=N/Nc2ccnc3cc(Cl)ccc23)ccc1OC(F)F` [Compound Z49626092], the “First screening IR (inhibition rate)” value is -10%.

Regarding `COc1cc(/C=N/NC(=O)c2cc(-c3cccnc3)nc3ccccc23)ccc1OCc1ccc(Cl)cc1` [Compound Z49638448], the “First screening IR (inhibition rate)” value was -1%.

`CCn1c(O)c(N=Nc2ccc([N+](=O)[O-])cc2S(=O)(=O)Nc2ccc(C)cc2C)c2ccccc21` [Compound Z49643067]: the “First screening IR (inhibition rate)” value was determined as 44%. With `O=S(=O)(N/N=C/c1ccc(N(c2ccccc2)c2ccccc2)cc1)c1ccc(Br)cc1` [Compound Z49646816], the “First screening IR (inhibition rate)” value amounted to 27%. Same read-out and setting: the same measure for `Oc1[nH]c2ccc(Br)cc2c1N=Nc1ccccn1` [Compound Z49660185]: -9%; for `Cc1nc2ccccc2c(=O)n1/N=C/c1c2ccccc2cc2ccccc12` [Compound Z49732101]: 2%. As to `COc1cc(/C=N/Nc2ncnc3scc(-c4ccccc4)c23)ccc1O` [Compound Z49889617], the “First screening IR (inhibition rate)” value is 13%. Still for that read-out and setting: then `COc1cc(/C=N/Nc2ncnc3sc(C)c(C)c23)ccc1O` [Compound Z49890548], with 21%. Same read-out and setting: the same measure for `Cc1sc2ncnc(N/N=C/c3cccc(Br)c3)c2c1C` [Compound Z49890557]: 5%; for `Cc1sc2ncnc(N/N=C/c3ccncc3)c2c1C` [Compound Z49890729]: 3%. Turning to `Cc1sc2ncnc(N/N=C/c3cccc(O)c3)c2c1C` [Compound Z49890739], the “First screening IR (inhibition rate)” value is reported as 14%.

Turning to `Cc1cccc(/C=N/Nc2ncnc3sc(C)c(C)c23)c1` [Compound Z49890788], the “First screening IR (inhibition rate)” value is given as 3%.

Consider `COc1ccc(/C=N/Nc2ncnc3sc(C)c(C)c23)cc1O` [Compound Z49890825], for which the “First screening IR (inhibition rate)” value amounted to 4%. Consider `COc1cc(/C=N/Nc2ncnc3sc(-c4ccccc4)cc23)cc(OC)c1OC` [Compound Z49894862], for which the “First screening IR (inhibition rate)” value is on record as 34%.

Consider `COc1ccc2c(C)cc(N/N=C/c3ccncc3)nc2c1` [Compound Z50018323], for which the “First screening IR (inhibition rate)” value stood at 3%. With `CCn1c(-c2ccncc2)nc2c1c(=O)[nH]c(=O)n2Cc1ccccc1` [Compound Z50138431], the “First screening IR (inhibition rate)” value is recorded as -3%.

`CCCCCn1c(-c2ccc(Sc3ccc(C)cc3)c([N+](=O)[O-])c2)nc2c1c(=O)[nH]c(=O)n2CCCC` [Compound Z50141536]: the “First screening IR (inhibition rate)” value is -20%.

Consider `O=C(OCc1nc(-c2cccs2)no1)c1c(F)cccc1F` [Compound Z51088101], for which the “First screening IR (inhibition rate)” value came out at 8%.

In the case of `Cc1onc(-c2c(F)cccc2Cl)c1C(=O)OCc1nc(-c2cccs2)no1` [Compound Z51122297], the “First screening IR (inhibition rate)” value was determined as 20%.

Turning to `O=C(OCc1nc(-c2cccs2)no1)c1ccc2ccccc2n1` [Compound Z51170832], the “First screening IR (inhibition rate)” value turned out to be 19%. Turning to `O=C(OCc1nc(-c2cccs2)no1)c1c(F)cccc1Cl` [Compound Z51180604], the “First screening IR (inhibition rate)” value amounted to 8%. As to `COc1ccccc1-c1nnc(SCC(=O)c2ccc(NC(C)=O)cc2F)n1-c1ccccc1` [Compound Z51187459], the “First screening IR (inhibition rate)” value is 0%. The same measure, in the same setting: the same measure for `Cc1nnc(COC(=O)c2cc(-c3ccccc3)nc3c2cnn3C(C)C)o1` [Compound Z51550903]: -3%; for `O=C(CCn1[nH]c(=O)ccc1=O)Nc1ccc(-n2cnnn2)cc1` [Compound Z51737757]: 14%; for `NC(=O)c1ccc(C(=O)N2CCN(c3ccccn3)CC2)cc1` [Compound Z51750245]: 0%. Regarding `CC(C)n1ncc2c(C(=O)N(C)CC(=O)Nc3ccc(F)c(F)c3F)cc(-c3ccccc3)nc21` [Compound Z51761022], the “First screening IR (inhibition rate)” value is 12%. As to `Cc1c(C(=O)NCCOc2ccccc2)[nH]c2c1C(=O)CCC2` [Compound Z51800409], the “First screening IR (inhibition rate)” value was 4%.

Take `CC(C)n1ncc2c(C(=O)Nc3ccccc3)cc(-c3ccccc3)nc21` [Compound Z51820408]: the “First screening IR (inhibition rate)” value is recorded as -10%.

As for `Cc1c(C(=O)NCCOc2ccccc2F)[nH]c2c1C(=O)CCC2` [Compound Z51995316], the “First screening IR (inhibition rate)” value is reported as 36%. As to `Cc1cc(C)n(CCCNC(=O)c2[nH]c3c(c2C)C(=O)CCC3)n1` [Compound Z51995634], the “First screening IR (inhibition rate)” value amounted to 3%. On the same count and under the same terms, then `Cc1c(C(=O)NCCSc2ccc(Br)cc2)[nH]c2c1C(=O)CCC2` [Compound Z51996046], with 8%; and `CC(C)n1ncc2c(C(=O)N3CCN(c4ccc(F)cc4)CC3)cc(-c3ccccc3)nc21` [Compound Z52005969], with 27%.

`COc1cc(NC(=O)c2cc(-c3ccccc3)nc3c2cnn3C(C)C)cc(OC)c1` [Compound Z52023681]: the “First screening IR (inhibition rate)” value is -11%. As to `Cc1nc(-c2cccc(NC(=O)CC(NC(N)=O)c3ccc(Cl)cc3)c2)cs1` (stereo not drawn) [Compound Z52058293], the “First screening IR (inhibition rate)” value is given as -6%. For the molecule `O=S(=O)(c1cccc(Cl)c1Cl)N1CCN(Cc2nc(-c3ccc(F)cc3)no2)CC1` [Compound Z52670207], the “First screening IR (inhibition rate)” value is reported as -5%. Same read-out and setting: then `CN(CC(=O)N1N=C(c2ccco2)CC1c1cccs1)Cc1nc2ccccc2c(=O)[nH]1` (stereo not drawn) [Compound Z52671252], with -3%; and `CN(CC(=O)NC(=O)Nc1ccccc1F)C1CCCc2ccccc21` (stereo not drawn) [Compound Z52744280], with -6%.

Turning to `CCn1c(-c2ccccc2)c(C(=O)CSc2nnc(-c3cccnc3)n2N)c2ccccc21` [Compound Z54072868], the “First screening IR (inhibition rate)” value is recorded as -13%. With `CC(OC(=O)c1ccc(-c2ccc(O)cc2)cc1)C(=O)c1ccc(F)c(F)c1` (stereo not drawn) [Compound Z54379277], the “First screening IR (inhibition rate)” value was found to be 27%.

For `CN1CCc2nc(NC(=O)CCC(=O)c3ccccc3)sc2C1` [Compound Z54410536], the “First screening IR (inhibition rate)” value is -2%.

As to `COC(=O)c1ccc2c(=O)[nH]c(COC(=O)Cc3ccsc3)nc2c1` [Compound Z54469331], the “First screening IR (inhibition rate)” value was 2%.

Turning to `CN1/C(=C\C(=O)CN2C(=O)NC3(CCCc4sccc43)C2=O)C(C)(C)c2ccccc21` (stereo not drawn) [Compound Z54813762], the “First screening IR (inhibition rate)” value is given as -20%. Still for that read-out and setting: the same measure for `Cc1ccc(-c2nn3c(=O)c4c5c(sc4nc3c3ccccc23)CCCC5)cc1` [Compound Z55163996]: 4%; for `Cc1ccc(-c2nn3c(=O)c4c(C)c(C)sc4nc3c3ccccc23)cc1` [Compound Z55164044]: -6%. Same read-out and setting: then `Cc1ccc(-c2nn3c(=O)c4c(-c5cccs5)csc4nc3c3ccccc23)cc1` [Compound Z55164116], with 24%; and `Cc1nn(CCc2nc(-c3ccco3)cs2)c2nc(-c3cccs3)cc(C(F)(F)F)c12` [Compound Z55404718], with 38%. Still for that read-out and setting: then `Cc1nn(-c2ccccc2)c2nc(-c3ccccc3)cc(C(F)(F)F)c12` [Compound Z55426459], with -6%; and `Cc1nn(CCC#N)c2nc(-c3cccnc3)cc(C(F)(F)F)c12` [Compound Z55426831], with -2%. With `Cc1nn(CCC#N)c2nc(-c3ccccc3)cc(C(F)(F)F)c12` [Compound Z55426833], the “First screening IR (inhibition rate)” value was -11%.

The same assay, now with this note: second screening, dissolved from fresh powder; n = 4; 10 μmol L−1 compound.
Turning to `COc1ccc(/C=N/Nc2ccnc3cc(Cl)ccc23)cc1O` [Compound Z49625943], the “Second screening IR (inhibition rate)” value was -17%. Still for that read-out and setting: the same measure for `COc1cc(/C=N/Nc2ncnc3sc(-c4ccccc4)cc23)cc(OC)c1OC` [Compound Z49894862]: 22%.
